# From US11617777B2, “Cytotoxic and anti-mitotic compounds, and methods of using the same” (ZYMEWORKS BC INC., priority 2013, dated 2023)
# Like-named read-outs stand apart in the source and are kept apart here.
# Experiments:
# Type in all cases: cell-based
# HCC1954 cells = assay: Cytotoxicity of compounds, CellTiter-Glo; conditions: Homo sapiens, HCC1954; Table 8; HCC-1954; read-out: (EC50)
# Source text: (§1) Cell lines used: Human T-cell leukemia cell line Jurkat (ATCC: TIB-152); HCC1954 (ATCC: CRL. 2338); Human Pancreatic cells lines: AsPC-1 (ATCC: CRL-1682), BxPC-3 (ATCC: CRL.1687), HPAF-II (ATCC: CRL.1997), MiaPaCa2 (ATCC: CRL.1420), PANC-1 (ATCC: CRL.1469), Capan-1 (ATCC: HTB-79), Capan-2 (ATCC: HTB-80) and the Human gastric carcinoma cell line NCI-N87 (ATCC: CRL. 5822); AML-193 (ATCC: CRL.9589), CCRF-CEM (ATCC: CCL-119), DU145 (ATCC: HTB-81), PC-3 (ATCC: CRL.1435), A-431 (ATCC: CRL.1555), HT-29 (ATCC: HTB-38), A-172 (ATCC: CRL.1620), NCI-H358 (ATCC: CRL.5807), A549 (ATCC: CCL-185), Colo-205 (ATCC: CCL-222), MDA-MB-231 (ATCC: HTB-26), OVCAR-3 (ATCC: HTB-161), OV-90 (ATCC: CRL.11732), OE19 (Sigma: 96071721), RT 112/84 (Sigma: 85061106).
# (§2) On the day prior to adding compounds, HCC1954 AsPC-1, BxPC-3, HPAF-II, MiaPaCa2, PANC-1, Capan-1, Capan-2 and NCI-N87 cells were added to opaque-walled 96-well tissue culture-treated microtiter plates using complete growth medium at a density of 2500 cells/100 microlitre (uL) of medium. These adherant cell lines cells were incubated for one night at 37° C./5% CO2 to allow the cells to attach to the microtiter plate surface. On the day that compounds were added, Jurkat cells are added to separate 96-well microtiter plates at 2500 cells/100 uL using the same growth medium as HCC1954. Compound were first serially diluted using dimethyl sulfoxide, and then the prepared dilutions are added to complete growth medium at five-times the final concentration—compounds were then titrated 1:3, eight steps. A control with no compound (growth medium alone) was included on each microtiter plate in sextuplicate. The prepared compounds titrations were added (twenty-five uL/well) in triplicate. The cells and compound titrations were incubated at 37° C./5% CO2 for three nights. After the incubation, cell viability is measured using CellTiter-Glo® reagent by adding thirty uL of prepared CellTiter-Glo® to each assay well. The assay is incubated for at least twenty minutes in the dark prior to measuring emitted luminescence using a microplate luminometer (500 ms integration time). The collected relative luminescence units (RLU) are converted to % cytotoxicity using the Growth medium alone control mentioned above (% Cytotoxicity=1−[Well RLU/average medium alone control RLU]).
# (§3) GraphPad Prism was used for generation of EC50 values using three parameter non-linear regression curve fitting.
# CCRF-CEM = assay: Cytotoxicity on various cell lines; conditions: Homo sapiens, Table 8
# Source text: (§4) FIG. 1 summarizes the data for compounds A, B, C, D, and E when tested using the Human mammary carcinoma cell line HCC1954 or Human T-cell leukemia cell line Jurkat. FIGS. 2-6 show the cytotoxicity data plots for individual compounds A-E. Tables 2-6 summarize the results of additional cytotoxicity assays.
# as §1, §2, §3
# NCI-H358 = assay: Cytotoxicity on various cell lines; conditions: Homo sapiens, Table 8
# Source text: as §4, §1, §2, §3
# DU145 = assay: Cytotoxicity on various cell lines; conditions: Homo sapiens, DU-145, Table 8
# Source text: as §4, §1, §2, §3
# PC-3 = assay: Cytotoxicity on various cell lines; conditions: Homo sapiens, Table 8
# Source text: as §4, §1, §2, §3
# AML-193 = assay: Cytotoxicity on various cell lines; conditions: Table 8
# Source text: as §4, §1, §2, §3
# OE19 = assay: Cytotoxicity on various cell lines; conditions: Homo sapiens, Table 8
# Source text: as §4, §1, §2, §3
# RT112/84 = assay: Cytotoxicity on various cell lines; conditions: Homo sapiens, Table 8
# Source text: as §4, §1, §2, §3
# HT-29 = assay: Cytotoxicity on various cell lines; conditions: Homo sapiens, Table 8
# Source text: as §4, §1, §2, §3
# A-431 = assay: Cytotoxicity on various cell lines; conditions: Homo sapiens, Table 8
# Source text: as §4, §1, §2, §3
# Colo-205 = assay: Cytotoxicity on various cell lines; conditions: Homo sapiens, Table 8
# Source text: as §4, §1, §2, §3
# MDA-MB-231 = assay: Cytotoxicity on various cell lines; conditions: Homo sapiens, Table 8
# Source text: as §4, §1, §2, §3
# OV-90 = assay: Cytotoxicity on various cell lines; conditions: Homo sapiens, Table 8
# Source text: as §4, §1, §2, §3
# OVCAR-3 = assay: Cytotoxicity on various cell lines; conditions: Homo sapiens, Table 8
# Source text: as §4, §1, §2, §3
# A-172 = assay: Cytotoxicity on various cell lines; conditions: Homo sapiens, Table 8
# Source text: as §4, §1, §2, §3
# MiaPaCa2 = assay: Cytotoxicity of compounds, CellTiter-Glo; conditions: Homo sapiens
# Source text: as §4, §1, §2, §3
# BxPC-3 = assay: Cytotoxicity of compounds, CellTiter-Glo; conditions: Homo sapiens
# Source text: as §4, §1, §2, §3
# AsPC-1 = assay: Cytotoxicity of compounds, CellTiter-Glo; conditions: Homo sapiens
# Source text: as §4, §1, §2, §3
# PANC-1 = assay: Cytotoxicity of compounds, CellTiter-Glo; conditions: Homo sapiens
# Source text: as §4, §1, §2, §3
# NCI-N87 = assay: Cytotoxicity of compounds, CellTiter-Glo; conditions: Homo sapiens
# Source text: as §4, §1, §2, §3
# Capan-2 = assay: Cytotoxicity of compounds, CellTiter-Glo; conditions: Homo sapiens, Table 5
# Source text: as §4, §1, §2, §3
# Capan-1 = assay: Cytotoxicity of compounds, CellTiter-Glo; conditions: Homo sapiens, Table 5
# Source text: as §4, §1, §2, §3
# HPAF-II = assay: Cytotoxicity of compounds, CellTiter-Glo; conditions: Homo sapiens
# Source text: as §4, §1, §2, §3
smiles,measurement,setting,value
"CN[C@H](C(=O)N[C@H](C(=O)N(C)[C@H](/C=C(\C)C(=O)NS(=O)(=O)Cc1ccccc1)C(C)C)C(C)(C)C)C(C)(C)c1ccccc1 [Compound 14, (S,E)-N-(benzylsulfonyl)-2,5-dimethyl-4-((S)—N,3,3-trimethyl-2-((S)-3-methyl-2-(methylamino)-3-phenylbutanamido)butanamido)hex-2-enamide]",EC50,HCC1954 cells,0.131 nM
same,EC50,CCRF-CEM,0.13 nM
same,EC50,NCI-H358,0.311 nM
same,EC50,DU145,0.649 nM
same,EC50,PC-3,0.455 nM
same,EC50,AML-193,0.191 nM
same,EC50,OE19,0.21 nM
same,EC50,RT112/84,0.178 nM
same,EC50,HT-29,0.167 nM
same,EC50,A-431,0.191 nM
same,EC50,Colo-205,~0.317 nM
same,EC50,MDA-MB-231,1.24 nM
same,EC50,OV-90,0.515 nM
same,EC50,OVCAR-3,0.09 nM
same,EC50,A-172,0.598 nM
same,EC50,"MiaPaCa2; MIA PaCa-2, Table 5, MinPaCa2, read-out: Cytotoxicity (EC50) MinPaCa2",0.204 nM
same,EC50,"MiaPaCa2; Table 8, Mia PaCa-2, read-out: (EC50)",0.332 nM
same,EC50,"BxPC-3; Table 5, read-out: Cytotoxicity (EC50) BxPC-3",0.0458 nM
same,EC50,"BxPC-3; Table 8, read-out: (EC50)",0.196 nM
same,EC50,"AsPC-1; ASPC1, Table 5, read-out: Cytotoxicity (EC50) AsPC-1",0.206 nM
same,EC50,"AsPC-1; ASPC1, Table 8, read-out: (EC50)",0.334 nM
same,EC50,"PANC-1; Table 5, read-out: Cytotoxicity (EC50) PANC-1",1.36 nM
same,EC50,"PANC-1; Table 8, read-out: (EC50)",0.759 nM
same,EC50,"NCI-N87; Table 5, read-out: Cytotoxicity (EC50) NCI-N87",0.175 nM
same,EC50,"NCI-N87; Table 8, read-out: (EC50)",0.325 nM
same,EC50,Capan-2,1.1 nM
same,EC50,Capan-1,2.08 nM
same,EC50,"HPAF-II; Table 5, read-out: Cytotoxicity (EC50) HPAF-II",0.172 nM
same,EC50,"HPAF-II; Table 8, read-out: (EC50)",~0.385 nM
